Laboratory results taken from patent US6780996B2, “Process for the preparation of 7-substituted-3 quinolinecarbonitriles” (Wyeth Holdings Corporation, priority 2002, dated 2004).

Compound | melting point
CC#CCOc1cc2ncc(C#N)c(Nc3cc(OC)c(Cl)cc3Cl)c2cc1OC [Example 1, 7-(2-Butynyloxy)-4-[(2,4-dichloro-5-methoxyphenyl)amino]-6-methoxy-3-quinolinecarbonitrile] | 193 to 197 °C
COc1cc(Nc2c(C#N)cnc3cc(OCC(C)(C)CN(C)C)c(OC)cc23)c(Cl)cc1Cl [Example 2, 4-[(2,4-Dichloro-5-methoxyphenyl)amino]-7-(3-dimethylamino-2,2-dimethylpropoxy)-6-methoxy-3-quinolinecarbonitrile] | 178 to 180 °C
COc1cc(Nc2c(C#N)cnc3cc(OCCCN4CCS(=O)(=O)CC4)c(OC)cc23)c(Cl)cc1Cl [Example 3, 4-[(2,4-Dichloro-5-methoxyphenyl)amino]-7-[3-(1,1-dioxido-4-thiomorpholinyl)propoxy]-6-methoxy-3-quinolinecarbonitrile] | 118 to 120 °C
COc1cc(Nc2c(C#N)cnc3cc(OCc4cccs4)c(OC)cc23)c(Cl)cc1Cl [Example 5, 4-[(2,4-Dichloro-5-methoxyphenyl)amino]-6-methoxy-7-(2-thienylmethoxy)-3-quinolinecarbonitrile] | 194 to 196 °C
COc1cc(Nc2c(C#N)cnc3cc(OCc4ccccc4)c(OC)cc23)c(Cl)cc1Cl [Example 6, 7-Benzyloxy-4-[(2,4-dichloro-5-methoxyphenyl)amino]-6-methoxy-3-quinolinecarbonitrile] | 198 to 200 °C
COc1cc(Nc2c(C#N)cnc3cc(Sc4ccccc4)c(OC)cc23)c(Cl)cc1Cl [Example 8, 4-[(2,4-Dichloro-5-methoxyphenyl)amino]-6-methoxy-7-phenylsulfanyl-3-quinolinecarbonitrile] | 220 to 222 °C
COCCOc1cc2ncc(C#N)c(NC3CCCC3)c2cc1OC [Example 9, 4-Cyclopentylamino-6-methoxy-7-(2-methoxyethoxy)-3-quinolinecarbonitrile] | 87 to 90 °C
CCCCNc1c(C#N)cnc2cc(OCCOC)c(OC)cc12 [Example 10, 4-Butylamino-6-methoxy-7-(2-methoxyethoxy)-3-quinolinecarbonitrile] | 99 to 102 °C
COc1cc(Nc2c(C#N)cnc3cc(SCc4ccccc4)c(OC)cc23)c(Cl)cc1Cl [Example 11, 7-Benzylthio-4-[(2,4-dichloro-5-methoxyphenyl)amino]-6-methoxy-3-quinolinecarbonitrile] | 123 to 125 °C
CCCCOc1cc2c(Nc3cc(OC)c(Cl)cc3Cl)c(C#N)cnc2cc1OCCOC [Example 24, 6-Butoxy-4-[(2,4-dichloro-5-methoxyphenyl)amino]-7-(2-methoxyethoxy)-3-quinolinecarbonitrile] | 166 to 167 °C

More lines, now with the values ahead:

melting point | Compound
267 to 269 °C | COc1cc(Nc2c(C#N)cnc3cc(Oc4ccncc4)c(OC)cc23)c(Cl)cc1Cl [Example 12, 4-[(2,4-Dichloro-5-methoxyphenyl)amino]-6-methoxy-7-(pyridin-4-yloxy)-3-quinolinecarbonitrile]
210 to 212 °C | COCCOc1cc2ncc(C#N)c(Nc3cc(OC)c(Cl)cc3Cl)c2cc1OC [Example 14, 4-[(2,4-Dichloro-5-methoxyphenyl)amino]-6-methoxy-7-[2-methoxyethoxy]-3-quinolinecarbonitrile]
188 to 190 °C | COCCOc1cc2ncc(C#N)c(Nc3cc(OC)c(OC)c(OC)c3)c2cc1OC [Example 17, 6-Methoxy-7-[2-methoxyethoxy]-4-[(3,4,5-trimethoxyphenyl)amino]-3-quinolinecarbonitrile]
194 to 203 °C | COCCOc1cc2c(Nc3ccc(Sc4nccn4C)c(Cl)c3)c(C#N)cnc2cc1OCCCN(C)C [Example 20, 4-({3-Chloro-4-[(1-methyl-1H-imidazol-2-yl)sulfanyl]phenyl}amino)-7-[3-(dimethylamino)propoxy]-6-(2-methoxyethoxy)-3-quinolinecarbonitrile]
188 to 190 °C | CCN1CCN(CCCOc2cc3ncc(C#N)c(Nc4ccc(Sc5nccn5C)c(Cl)c4)c3cc2OCCOC)CC1 [Example 21, 4-({3-Chloro-4-[(1-methyl-1H-imidazol-2-yl)sulfanyl]phenyl}amino)-7-[3-(4-ethyl-1-piperazinyl)propoxy]-6-(2-methoxyethoxy)-3-quinolinecarbonitrile]
153 to 155 °C | COCCOc1cc2c(Nc3cc(OC)c(Cl)cc3Cl)c(C#N)cnc2cc1OCC1CCN(C)CC1 [Example 22, 4-[(2,4-Dichloro-5-methoxyphenyl)amino]-6-[2-methoxyethoxy]-7-[(1-methylpiperidine-4-yl)methoxy]3-quinolinecarbonitrile]
215 to 217 °C | CCOc1cc2c(Nc3cc(OC)c(Cl)cc3Cl)c(C#N)cnc2cc1OCCOC [Example 23, 4-[(2,4-Dichloro-5-methoxyphenyl)amino]-6-ethoxy-7-(2-methoxyethoxy)3-quinolinecarbonitrile]
193 to 196 °C | COc1cc(Nc2c(C#N)cnc3cc(OCC4CCCCO4)c(OC)cc23)c(Cl)cc1Cl (stereo not shown) [Example 25, 4-[(2,4-Dichloro-5-methoxyphenyl)amino]-6-methoxy-7-(tetrahydro-2H-pyran-2-ylmethoxy)3-quinolinecarbonitrile]
158 to 159 °C | COCCOc1cc2ncc(C#N)c(Nc3cc(OC)c(Cl)cc3Cl)c2cc1OCCN1CCOCC1 [Example 26, 4-[(2,4-Dichloro-5-methoxyphenyl)amino]-7-(2-methoxyethoxy)-6-(2-morpholin-4-ylethoxy)3-quinolinecarbonitrile]
270 to 272 °C | COc1cc2c(Nc3ccc(Sc4nccn4C)c(Cl)c3)c(C#N)cnc2cc1N1CCN(C)CC1 [Example 27, 4-[3-Chloro-4-(1-methyl-1H-imidazol-2-ylsulfanyl)-phenylamino]-6-methoxy-7-(4-methylpiperazin-1-yl)-quinoline-3-carbonitrile]
122 to 124 °C | COc1cc(Nc2c(C#N)cnc3cc(NCCCC4CCN(C)CC4)c(OC)cc23)c(Cl)cc1Cl [Example 28, 4-[(2,4-Dichloro-5-methoxyphenyl)amino]-6-methoxy-7-{[3-(1-methylpiperidin-4-yl)propyl]amino}quinoline-3-carbonitrile]
198 to 200 °C | COc1cc2c(Nc3ccc(Sc4nccn4C)c(Cl)c3)c(C#N)cnc2cc1NCCCN(C)C [Example 29, 4-[3-Chloro-4-(1-methyl-1H-imidazol-2-ylsulfanyl)-phenylamino]-7-{[3-(dimethyl)aminopropyl]amino}-6-methoxyquinoline-3-carbonitrile]
196 to 201 °C | COc1cc2c(Nc3ccc(Sc4nccn4C)c(Cl)c3)c(C#N)cnc2cc1N(C)CCCN(C)C [Example 30, 4-[3-Chloro-4-(1-methyl-1H-imidazol-2-ylsulfanyl)-phenylamino]-7-{[3-(dimethylamino)propyl]-methylamino}-6-methoxyquinoline-3-carbonitrile]
182 to 183 °C | COCCOc1ccc2c(Nc3cc(OC)c(Cl)cc3Cl)c(C#N)cnc2c1 [Example 33, 4-[(2,4-Dichloro-5-methoxyphenyl)amino]-7-(2-methoxyethoxy)-3-quinolinecarbonitrile]
144 to 145 °C | COCCOc1ccc2c(Nc3ccc(Cl)cc3Cl)c(C#N)cnc2c1 [Example 34, 4-[(2,4-Dichlorophenyl)amino]-7-(2-methoxyethoxy)-3-quinolinecarbonitrile]
